Laboratory results: ChEMBL document CHEMBL1671685, “Complete nucleotide sequence and comparative analysis of pPR9, a 41.7-kilobase conjugative staphylococcal multiresistance plasmid conferring high-level mupirocin resistance” (2010)

System: Staphylococcus aureus
Experiment: Antibacterial activity against methicillin-resistant Staphylococcus aureus harboring 41.7-kilobase conjugative staphylococcal multiresistance plasmid pPR9 conferring high-level mupirocin resistance
Format: functional

## C/C(=C\C(=O)OCCCCCCCCC(=O)O)C[C@@H]1OC[C@H](C[C@@H]2O[C@H]2[C@@H](C)[C@H](C)O)[C@@H](O)[C@H]1O [MUPIROCIN]
  MIC: ≥ 1020 µg/mL
